From patent US7432360B2, “Multi-dose erythropoietin formulations” (Aventis Pharmaceuticals Inc., priority 2005, dated 2008)
Like-named read-outs stand apart in the source and are kept apart here.

Legend:
[1] = Appearance of the solution when the preservative is used in the EPO formulation; type: physicochemical
Description: Multi-dose EPO-containing solutions were formulated as sterile, non-pyrogenic, colorless aqueous solutions in water for injection at 10,000 units and 20,000 units concentration. Solutions prepared contained a 20 mM phosphate buffer (sodium phosphate monobasic monohydrate, and sodium phosphate dibasic heptahydrate), 0.01% w/v polysorbate 20 as an antiadsorbent, 0.45-0.8% w/v sodium chloride (depending on the preservative system that was used, the amount of sodium chloride was adjusted to produce an Osmolality of approximately 300 mOsm/kg), and a preservative system.

[2] = pH>3; cited from earlier work
[3] = Stability of EPO in preserved formulations, reverse phase HPLC assay (% label claim); type: physicochemical; conditions: in the presence of thimerosal
Description: Prototype batches were made using these selected preservatives and placed on stability at 5° C. and 25° C. Samples were tested by a reverse phase HPLC method.
Detection of the EPO protein was monitored at 210 nm.

[4] = tested on: indicator aerobic bacteria and molds; experiment: Preservative challenge test (USP and EP criteria); type: cell-based; conditions: in the EPO formulation
[5] = preservative in EPO formulation (phosphate buffer, polysorbate 20, sodium chloride, pH approx. 7.0)

SMILES	appearance of solution [1, 5]	other results
CCCOC(=O)c1ccc(O)cc1 [propyl paraben]	hazy to cloudy	
O=[N+]([O-])[O-].[Hg+][c]1ccccc1 [phenyl mercuric nitrate]	cloudy	
CC(C)(O)C(Cl)(Cl)Cl [chlorobutanol]		stability of chlorobutanol [2]: not stable
Cc1cccc(O)c1 [m-cresol]	hazy to cloudy	
Oc1ccccc1 [phenol]		appearance of solution [1]: hazy to cloudy
C[CH2][Hg][S]c1ccccc1C(=O)[O-].[Na+] [Thimerosal]	clear	chemical stability of the EPO formulation [3]: good chemical stability; preservative efficacy [4]: good preservative efficacy
COC(=O)c1ccc(O)cc1 [Methyl paraben]	hazy to cloudy	
